From patent publication US8222483B2, “Cytokinin oxidase sequences and methods of use” (Pioneer Hi Bred International Inc, priority 2004, dated 2012)

Tested on: ZmCkx2
Test: ZmCkx2 expression in leaf discs incubated with benzyladenine (Northern and Lynx analyses)
Assay type: cell-based, maize
Conditions: leaf discs incubated with 10 μM benzyladenine
Procedure: Northern analysis of ZmCkx2 was performed using ExpressHyb™ Hybridization Solution from BD Biosciences Clontech (Palo Alto, Calif.) with a final wash in 0.1×SSC, 0.1% SDS at 65° C. for 20 minutes.
A tight relationship exists between Lynx and Northern data for ZmCkx2. This provided confidence when the Lynx database was mined for ZmCkx2 expression in various plant parts. […] Similarly, Northern data indicated strongest signals from ear leaf and midrib tissues; intermediate levels in tassel, husk leaves, young leaves, stalk, and pulvini; and lower levels in cob and ovary tissue. Little to no ZmCkx2 activity was detected by Northern analysis of roots or silks.

Question: For `c1ccc(CNc2ncnc3nc[nH]c23)cc1` [benzyladenine], which “increase in ZmCkx2 expression” value is on record?
Answer: 2 fold
